What was measured:
[1] = test system: Cryptosporidium parasites; assay: Lapaquistat/Lovastatin combination in Cryptosporidium-infected HCT-8 cells (infection ratio, Opera Phenix); type: cell-based; details: HCT-8, 48 hours of infection, infection ratio = number of parasites/number of host cells, drug alone, read-out: IC50 (ability to limit Cryptosporidium growth)
Method: Intestinal epithelial cells (HCT-8) were infected with Cryptosporidium parasites and treated with increasing concentrations of Lapaquistat acetate or Lovastatin, either alone or in combination. After 48 hours of infection, cells were then fixed and stained with a lectin that specifically marks parasites and a Hoechst dye that specifically labels DNA. Cells and parasites were then visualized with an Opera Phenix imaging microscope and infection ratio was calculated as number of parasites/number of host cells.

Cryptosporidium parvum = assay: In vitro IC50 curves in Cryptosporidium-infected HCT-8 intestinal epithelial cell monolayers (imaging of total and female parasites); type: cell-based; details: infected intestinal epithelial cells; development measured by % female parasites in total parasites; figure legends
Method: HCT-cells (ATCC; CCL-244) were seeded in a 96-well plate at a density of 30,000 cells/well in complete media (RPMI with 10% FCS) and allowed to grow for 48 hours. Cryptosporidium parvum oocysts (Bunchgrass Farms; Dreary Idaho, USA) were prepared for infection by bleach treating (1% sodium hypochlorite) on ice for 5 minutes to remove bacterial contaminants, followed by a wash step and incubation in 0.75% sodium taurocholate for 10 minutes at 37° C. to trigger excystation. Oocysts were resuspended in infection media (RPMI with 1% FCS) and added to cells in 100 uL media (20,000 oocysts/well). A 10 mM solution of lapaquistat acetate (MedChem Express; Cat. No. HY-16274-1 mg) was created using DMSO as the solvent. From this stock, a half-logarithmic (3.16-fold) dilution series was created in infection media, at 2× the intended final concentration. 3 hours post-infection, 100 uL of each drug dilution was added to the wells. Each drug concentration comprised 6 technical replicates. […] The plate was then imaged using a Cytation cell imaging multimode reader (BioTek) to count host nuclei, total number of parasites, and the number of female parasites among them. […]

Cryptosporidium = details: malnourished and immunocompromised patients; cited from earlier work

## CC[C@H](C)C(=O)O[C@H]1C[C@@H](C)C=C2C=C[C@H](C)[C@H](CC[C@@H]3C[C@@H](O)CC(=O)O3)[C@H]21 [Lovastatin]
[1]
  IC50: 4.1 µM

## F/C(COc1ccc2c(c1)[nH]c1ccccc12)=C1/CN2CCC1CC2 [YM-53601]
Cryptosporidium parvum
  efficacy against parasite growth and parasite development: show efficacy

## CC(=O)Oc1ccccc1C(=O)Nc1ncc([N+](=O)[O-])s1 [nitazoxanide]
Cryptosporidium
  efficacy in patients: limited efficacy

From patent US20260124215A1, “METHODS OF TREATMENT OF INTESTINAL INFECTIONS” (THE FRANCIS CRICK INSTITUTE LIMITED, priority 2022, published 2026)
